8 compounds from ChEMBL document CHEMBL1123331, “Synthesis of pyrimidin-2-one nucleosides as acid-stable inhibitors of cytidine deaminase” (J Med Chem, 1986) can be followed below.

Cytidine deaminase, sequence (P56389 whole entry): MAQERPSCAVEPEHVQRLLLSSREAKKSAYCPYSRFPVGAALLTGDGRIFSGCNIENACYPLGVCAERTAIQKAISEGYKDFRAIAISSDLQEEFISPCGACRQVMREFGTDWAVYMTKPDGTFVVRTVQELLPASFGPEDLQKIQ

The first assay concerns the target Cytidine deaminase (Mus musculus, UniProt P56389). As to the kind of experiment: Compound was tested for the inhibitory constant for mouse kidney cytidine deaminase.
A word on the Ki: it is the equilibrium dissociation constant of an inhibitor or competing ligand from its target. Read a low Ki as a stronger hold on the target. `O=C1NC=CCN1C1O[C@H](CO)[C@@H](O)[C@H]1O` (stereo partly drawn) gave a Ki of 4 µM.

The compound `O=C1NCC=CN1[C@@H]1O[C@H](CO)[C@@H](O)[C@H]1O` came in with a Ki of 4 µM. The compound `O=C1NC(CO)C=CN1C1O[C@H](CO)[C@@H](O)[C@H]1O` (stereo partly drawn) registered a Ki of 0.4 µM.

`O=C1NC(C(O)O)CCN1C1O[C@H](CO)[C@@H](O)[C@H]1O` (stereo partly drawn): the Ki came out at 20 µM. On the same count and under the same terms, in the case of `O=c1nc(CO)ccn1C1O[C@H](CO)[C@@H](O)[C@H]1O` (stereo partly drawn) it was 100 µM; in that of `OCC1NC=Nc2c1ncn2[C@@H]1O[C@H](CO)[C@@H](O)[C@H]1O` (stereo partly drawn), 10 µM; in that of `OC[C@H]1O[C@@H](n2cnc3cncnc32)[C@H](O)[C@@H]1O` [NEBULARINE], 10 µM.

The next assay has as its target T1, Adenosine deaminase (Mus musculus, UniProt P03958).
T1 sequence (P03958 whole entry): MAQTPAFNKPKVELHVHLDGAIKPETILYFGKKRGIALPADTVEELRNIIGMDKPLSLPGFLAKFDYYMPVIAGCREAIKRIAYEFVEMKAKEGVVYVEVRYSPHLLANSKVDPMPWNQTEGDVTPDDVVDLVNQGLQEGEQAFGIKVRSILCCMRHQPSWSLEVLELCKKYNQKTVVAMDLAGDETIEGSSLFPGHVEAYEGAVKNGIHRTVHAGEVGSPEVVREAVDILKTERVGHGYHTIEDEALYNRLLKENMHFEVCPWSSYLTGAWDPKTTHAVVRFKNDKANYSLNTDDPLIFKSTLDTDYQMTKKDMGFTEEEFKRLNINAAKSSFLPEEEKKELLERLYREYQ
The assay is described as follows: Compound was tested for the inhibitory constant for adenosine deaminase (ADA).
Take `O=c1ncccn1[C@@H]1O[C@H](CO)[C@@H](O)[C@H]1O` [ZEBULARINE]: the Ki stood at 1000 nM.
